Literature values as cited in US20010012851A1, “NITRIC OXIDE RELEASING OXINDOLE PRODRUGS FOR ANAGESIC, ANTI-INFLAMMATORY AND DISEASE-MODIFYING USE” (priority 1999, published 2001).

Assays:
[1] = rat; for healing of experimental gastric ulcers (healing rate): daily treatment, Elliott et al. 1995
[2] = animal models of acute and chronic inflammation; versus parent NSAID
[3] = acute and chronic administration; versus parent NSAID
[4] = rat

SMILES	healing of experimental gastric ulcers (healing rate) [1]	anti-inflammatory activity [2]	gastric injury [3]	mitochondrial damage ([4]; in vivo)	macroscopic damage in the small intestine ([4]; versus flurbiprofen)	healing of experimental gastric ulcers ([1]; earlier knowledge on the NO donor)
COc1ccc2cc(CCC(C)=O)ccc2c1 [nabumetone]	no effect	–	–	–	–	–
CC(C(=O)OCCCCO[N+](=O)[O-])c1ccc(-c2ccccc2)c(F)c1 (stereo not shown) [flurbiprofen nitroxybutylester]	–	comparable to that of their parent NSAIDs	markedly less gastric injury	associated with mitochondrial damage in vivo	significantly less macroscopic damage	–
O=[N+]([O-])OCC(CO[N+](=O)[O-])O[N+](=O)[O-] [glyceryl trinitrate]	accelerated	–	–	–	–	significantly accelerated
O=C(Cc1ccccc1Nc1c(Cl)cccc1Cl)OCCCCO[N+](=O)[O-] [diclofenac nitroxybutylester, diclofenac-4-nitroxybutylester]	accelerated	comparable to that of their parent NSAIDs	markedly less gastric injury	–	–	–
CC(C(=O)OCCCCO[N+](=O)[O-])c1cccc(C(=O)c2ccccc2)c1 (stereo not shown) [ketoprofen nitroxybutylester]	–	comparable to that of their parent NSAIDs	markedly less gastric injury	–	–	–
O=C(O)Cc1ccccc1Nc1c(Cl)cccc1Cl [diclofenac]	no effect	–	–	–	–	–
